SMILES strings stand for the structures. Where a name gives a salt, the structure may show the parent alone.

This assay deals with T1, recombinant human LTA4 hydrolase (rhLTA4H) (Homo sapiens, UniProt P09960).
T1 construct: made in house; host or cells: Spodoptera frugiperda (Sf-9) cells, baculovirus (pFastBac1)
T1 sequence (P09960 1-611): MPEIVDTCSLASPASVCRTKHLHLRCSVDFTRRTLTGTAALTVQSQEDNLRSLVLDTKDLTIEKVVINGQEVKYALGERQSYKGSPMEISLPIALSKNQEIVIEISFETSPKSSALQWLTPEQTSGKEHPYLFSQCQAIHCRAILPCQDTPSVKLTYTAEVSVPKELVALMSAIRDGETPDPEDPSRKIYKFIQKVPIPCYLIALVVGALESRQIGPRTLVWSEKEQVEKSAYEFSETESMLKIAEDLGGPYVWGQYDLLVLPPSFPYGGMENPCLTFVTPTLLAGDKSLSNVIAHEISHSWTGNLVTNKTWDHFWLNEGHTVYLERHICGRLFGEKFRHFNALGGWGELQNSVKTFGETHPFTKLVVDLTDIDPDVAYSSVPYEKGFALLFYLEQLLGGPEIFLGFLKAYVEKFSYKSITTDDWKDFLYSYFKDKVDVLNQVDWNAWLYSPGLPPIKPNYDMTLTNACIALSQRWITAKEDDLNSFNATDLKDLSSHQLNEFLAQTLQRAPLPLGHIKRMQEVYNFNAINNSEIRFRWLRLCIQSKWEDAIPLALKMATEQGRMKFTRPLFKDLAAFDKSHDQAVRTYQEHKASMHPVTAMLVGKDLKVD
The assay is described as follows: Recombinant Human LTA4 Hydrolase Assay for LTA4 Hydrolase Inhibitor Activity. The format is biochemical. Conditions: average of results obtained; LTB4 quantified by enzyme-linked immunoassay. The method, boiled down:
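Baculovirus/Sf-9-expressed human LTA4 hydrolase (36 ng) preincubated with compound 10 min at rt in 0.1 M potassium phosphate pH 7.4, 5 mg/mL fatty-acid-free BSA. Reaction started with 9 ng LTA4 free acid, run 10 min at rt; LTB4 measured by enzyme immunoassay, IC50 from 4-parameter fit.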
By Ki is commonly meant a dissociation constant, usually derived from enzyme kinetics or from competition with a known ligand. For `c1ccc2sc(Oc3ccc(CN4C[C@@H]5C[C@H]4CN5)cc3)nc2c1` [Example 1B, (S,S)-2-[4-(2,5-Diaza-bicyclo[2.2.1]hept-2-ylmethyl)-phenoxy]-benzothiazole hydrochloride], the Ki stood at 54 nM.
Then `O=C(c1ccsc1)N1CC2CN(Cc3ccc(Oc4nc5ccccc5s4)cc3)CC2C1` (stereo not drawn) [Example 109, {5-[4-(Benzothiazol-2-yloxy)-benzyl]-hexahydro-pyrrolo[3,4-c]pyrrol-2-yl}-thiophen-3-yl-methanone], with 135 nM.
Then `O=C(N1C[C@@H]2C[C@H]1CN2CCOc1ccc(Oc2nc3ccccc3s2)cc1)C1(O)CC1` [Example 27, (S,S)-(5-{2-[4-(Benzothiazol-2-yloxy)-phenoxy]-ethyl}-2,5-diaza-bicyclo[2.2.1]hept-2-yl)-(1-hydroxy-cyclopropyl)-methanone], with 1 nM; and `c1ccc2sc(Oc3ccc(CCN4C[C@@H]5C[C@H]4CN5)cc3)nc2c1` [Example 7B, (S,S)-2-{4-[2-(2,5-Diaza-bicyclo[2.2.1]hept-2-yl)-ethyl]-phenoxy}-benzothiazole hydrochloride], with 10 nM; and `O=C(CO)N1C[C@H]2C[C@@H]1CN2Cc1ccc(Oc2nc3ccccc3s2)cc1` [Example 44, (R,R)-1-{5-[4-(Benzothiazol-2-yloxy)-benzyl]-2,5-diaza-bicyclo[2.2.1]hept-2-yl}-2-hydroxy-ethanone], with 38 nM.
Regarding `CS(=O)(=O)N1C[C@H]2C[C@@H]1CN2Cc1ccc(Oc2nc3cc(Cl)ccc3s2)cc1` [Example 181, (R,R)-5-Chloro-2-[4-(5-methanesulfonyl-2,5-diaza-bicyclo[2.2.1]hept-2-ylmethyl)-phenoxy]-benzothiazole], the Ki is 1470 nM.
Then `CC(=O)N[C@H]1C[C@H]2CC[C@@H](C1)N2CCOc1ccc(Oc2nc3ccc(C)cc3s2)cc1` [Example 271], with 79 nM.
Then `NC(=O)N1C[C@H]2C[C@@H]1CN2CCc1ccc(Oc2nc3cccc(F)c3s2)cc1` [Example 245, (R,R)-5-{2-[4-(7-Fluoro-benzothiazol-2-yloxy)-phenyl]-ethyl}-2,5-diaza-bicyclo[2.2.1]heptane-2-carboxylic acid amide], with 12 nM; and `NC(=O)N[C@H]1C[C@H]2CC[C@@H](C1)N2Cc1ccc(Oc2nc3ccccc3s2)cc1` [Example 60, meso-endo-{8-[4-(Benzothiazol-2-yloxy)-benzyl]-8-aza-bicyclo[3.2.1]oct-3-yl}-urea], with 2 nM; and `NC(=O)N1C[C@@H]2C[C@H]1CN2Cc1ccc(Oc2nc3ccccc3s2)cc1F` [Example 80, (S,S)-5-[4-(Benzothiazol-2-yloxy)-2-fluoro-benzyl]-2,5-diaza-bicyclo[2.2.1]heptane-2-carboxylic acid amide], with 60 nM.
Then `CC(=O)N1[C@@H]2CC[C@H]1C[C@@H](NCCc1ccc(Oc3nc4cc(F)ccc4s3)cc1)C2` [Example 197, meso-endo-1-(3-{2-[4-(5-Fluoro-benzothiazol-2-yloxy)-phenyl]-ethylamino}-8-aza-bicyclo[3.2.1]oct-8-yl)-ethanone], with 85 nM; and `O=S(=O)(c1cccs1)N1CC2CN(Cc3ccc(Oc4nc5ccccc5s4)cc3)CC2C1` (stereo not drawn) [Example 124, 2-{4-[5-(Thiophene-2-sulfonyl)-hexahydro-pyrrolo[3,4-c]pyrrol-2-ylmethyl]-phenoxy}-benzothiazole], with 2290 nM; and `CC(=O)N1C[C@@H]2C[C@H]1CN2Cc1ccc(Oc2nc3ccccc3s2)cc1` [Example 1, (S,S)-1-{5-[4-(Benzothiazol-2-yloxy)-benzyl]-2,5-diaza-bicyclo[2.2.1]hept-2-yl}-ethanone], with 6 nM.
For the compound `CS(=O)(=O)N[C@H]1C[C@H]2CC[C@@H](C1)N2CCOc1ccc(Oc2nc3ccc(Cl)cc3s2)cc1` [Example 222, meso-endo-N-(8-{2-[4-(6-Chloro-benzothiazol-2-yloxy)-phenoxy]-ethyl}-8-aza-bicyclo[3.2.1]oct-3-yl)-methanesulfonamide], the Ki worked out at 130 nM.
Then `CS(=O)(=O)N1C[C@@H]2C[C@H]1CN2Cc1ccc(Cc2nc3ccccc3s2)cc1` [Example 45, (S,S)-2-[4-(5-Methanesulfonyl-2,5-diaza-bicyclo[2.2.1]hept-2-ylmethyl)-benzyl]-benzothiazole], with 190 nM; and `NC(=O)N[C@@H]1C[C@H]2CC[C@@H](C1)N2CCOc1ccc(Oc2nc3c(F)cccc3s2)cc1` [Example 204, meso-exo-(8-{2-[4-(4-Fluoro-benzothiazol-2-yloxy)-phenoxy]-ethyl}-8-aza-bicyclo[3.2.1]oct-3-yl)-urea], with 5 nM.
As to `NC(=O)N1CC2CN(CCc3ccc(Oc4nc5c(F)cccc5s4)cc3)CC2C1` (stereo not drawn) [Example 147, 5-{2-[4-(4-Fluoro-benzothiazol-2-yloxy)-phenyl]-ethyl}-hexahydro-pyrrolo[3,4-c]pyrrole-2-carboxylic acid amide], the Ki worked out at 5 nM.
Then `NC(=O)N1CC2CN(Cc3ccc(Oc4nc5ccccc5s4)cc3)CC2C1` (stereo not drawn) [Example 139, 5-[4-(Benzothiazol-2-yloxy)-benzyl]-hexahydro-pyrrolo[3,4-c]pyrrole-2-carboxylic acid amide], with 3 nM; and `O=C(N1C[C@@H]2C[C@H]1CN2Cc1ccc(Oc2nc3ccccc3s2)cc1)C1(O)CC1` [Example 11, (S,S)-{5-[4-(Benzothiazol-2-yloxy)-benzyl]-2,5-diaza-bicyclo[2.2.1]hept-2-yl}-(1-hydroxy-cyclopropyl)-methanone], with 13 nM; and `CC(=O)N[C@H]1C[C@H]2CC[C@@H](C1)N2Cc1ccc(Oc2nc3c(F)cccc3s2)cc1F` [Example 160, meso-endo-N-{8-[2-Fluoro-4-(4-fluoro-benzothiazol-2-yloxy)-benzyl]-8-aza-bicyclo[3.2.1]oct-3-yl}-acetamide], with 1 nM.
Then `CS(=O)(=O)N1CC2CCC(C1)N2Cc1ccc(Oc2nc3c(F)cccc3s2)cc1` [Example 258, meso-4-Fluoro-2-[4-(3-methanesulfonyl-3,8-diaza-bicyclo[3.2.1]oct-8-ylmethyl)-phenoxy]-benzothiazole], with 8 nM; and `NC(=O)N[C@H]1C[C@H]2CC[C@@H](C1)N2Cc1ccc(Cc2nc3ccccc3s2)cc1` [Example 36, meso-endo-[8-(4-Benzothiazol-2-ylmethyl-benzyl)-8-aza-bicyclo[3.2.1]oct-3-yl]-urea], with 94 nM; and `CC(=O)N[C@H]1C[C@H]2CC[C@@H](C1)N2CCc1ccc(Oc2nc3cccc(Cl)c3s2)cc1` [Example 187, meso-endo-N-(8-{2-[4-(7-Chloro-benzothiazol-2-yloxy)-phenyl]-ethyl}-8-aza-bicyclo[3.2.1]oct-3-yl)-acetamide], with 975 nM.
The figure for `CS(=O)(=O)N1C[C@H]2C[C@@H]1CN2CCOc1ccc(Oc2nc3cc(F)ccc3s2)cc1` [Example 168, (R,R)-5-Fluoro-2-{4-[2-(5-methanesulfonyl-2,5-diaza-bicyclo[2.2.1]hept-2-yl)-ethoxy]-phenoxy}-benzothiazole] is 128 nM; for `O=S(=O)(C1CC1)N1CC2CN(Cc3ccc(Oc4nc5ccccc5s4)cc3)CC2C1` (stereo not drawn) [Example 126, 2-[4-(5-Cyclopropanesulfonyl-hexahydro-pyrrolo[3,4-c]pyrrol-2-ylmethyl)-phenoxy]-benzothiazole] it is 17 nM; for `CC(C)(C)OC(=O)CN1C[C@@H]2C[C@H]1CN2Cc1ccc(Oc2nc3ccccc3s2)cc1` [Example 50, (S,S)-{5-[4-(Benzothiazol-2-yloxy)-benzyl]-2,5-diaza-bicyclo[2.2.1]hept-2-yl}-acetic acid tert-butyl ester] it is 9 nM.
For `CC(C)(O)C(=O)N1C[C@@H]2C[C@H]1CN2CCc1ccc(Oc2nc3ccccc3s2)cc1` [Example 17, (S,S)-1-(5-{2-[4-(Benzothiazol-2-yloxy)-phenyl]-ethyl}-2,5-diaza-bicyclo[2.2.1]hept-2-yl)-2-hydroxy-2-methyl-propan-1-one], the Ki worked out at 11 nM.
Then `CS(=O)(=O)N1C[C@@H]2C[C@H]1CN2CCOc1ccc(Oc2nc3ccccc3s2)cc1` [Example 49, (S,S)-2-{4-[2-(5-Methanesulfonyl-2,5-diaza-bicyclo[2.2.1]hept-2-yl)-ethoxy]-phenoxy}-benzothiazole], with 20 nM; and `CS(=O)(=O)N1[C@@H]2CC[C@H]1C[C@H](NCCOc1ccc(Oc3nc4c(F)cccc4s3)cc1)C2` [Example 217, meso-exo-{2-[4-(4-Fluoro-benzothiazol-2-yloxy)-phenoxy]-ethyl}-(8-methanesulfonyl-8-aza-bicyclo[3.2.1]oct-3-yl)-amine], with 30 nM; and `CS(=O)(=O)N1C[C@@H]2C[C@H]1CN2Cc1ccc(Oc2nc3cc(Cl)ccc3s2)cc1` [Example 206, (S,S)-5-Chloro-2-[4-(5-methanesulfonyl-2,5-diaza-bicyclo[2.2.1]hept-2-ylmethyl)-phenoxy]-benzothiazole], with 1100 nM.

Source of the values: patent US8344008B2 (Janssen Pharmaceutica NV, priority 2007, dated 2013).
